Results published in patent publication US20110263664A1, “Inhibitors of PIM-1 Protein Kinases, Compositions and Methods for Treating Prostate Cancer” (MUSC FOUNDATION FOR RESEARCH DEVELOPMENT, priority 2007, published 2011).

What was measured:
Format in all cases: biochemical
FLT3(D835Y) = FLT3(D835Y) (Homo sapiens, UniProt P36888, D835Y); assay: Kinase selectivity, Table 5: FLT3(D835Y); conditions: read-out: selectivity data (inhibition), FLT3(D835Y)
FGFR1 = FGFR1 (Homo sapiens, UniProt P11362); assay: Kinase selectivity, Table 5: FGFR1; conditions: read-out: selectivity data (inhibition), FGFR1
BMX = BMX (Homo sapiens, UniProt P51813); assay: Kinase selectivity, Table 5: BMX; conditions: read-out: selectivity data (inhibition), BMX
PIM2 = PIM2 (Homo sapiens, UniProt Q9P1W9); assay: Kinase selectivity, Table 5: PIM2; conditions: read-out: selectivity data (inhibition), PIM2
PIM2, sequence (Q9P1W9 whole entry): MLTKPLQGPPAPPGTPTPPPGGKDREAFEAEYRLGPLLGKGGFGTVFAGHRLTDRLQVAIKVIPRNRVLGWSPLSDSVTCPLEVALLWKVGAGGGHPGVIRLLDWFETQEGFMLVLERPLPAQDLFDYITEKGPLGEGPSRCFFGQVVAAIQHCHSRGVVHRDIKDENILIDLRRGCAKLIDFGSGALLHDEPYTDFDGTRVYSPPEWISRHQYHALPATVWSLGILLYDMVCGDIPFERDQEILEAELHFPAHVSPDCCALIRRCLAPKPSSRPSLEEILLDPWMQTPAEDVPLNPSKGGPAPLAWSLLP

MARK1 = MARK1 (Homo sapiens, UniProt Q9P0L2); assay: Kinase selectivity, Table 5: MARK1; conditions: read-out: selectivity data (inhibition), MARK1
CAMK4 = CAMK4 (Homo sapiens, UniProt Q16566); assay: Kinase selectivity, Table 5: CAMK4; conditions: read-out: selectivity data (inhibition), CAMK4
CAMK4, sequence (Q16566 whole entry): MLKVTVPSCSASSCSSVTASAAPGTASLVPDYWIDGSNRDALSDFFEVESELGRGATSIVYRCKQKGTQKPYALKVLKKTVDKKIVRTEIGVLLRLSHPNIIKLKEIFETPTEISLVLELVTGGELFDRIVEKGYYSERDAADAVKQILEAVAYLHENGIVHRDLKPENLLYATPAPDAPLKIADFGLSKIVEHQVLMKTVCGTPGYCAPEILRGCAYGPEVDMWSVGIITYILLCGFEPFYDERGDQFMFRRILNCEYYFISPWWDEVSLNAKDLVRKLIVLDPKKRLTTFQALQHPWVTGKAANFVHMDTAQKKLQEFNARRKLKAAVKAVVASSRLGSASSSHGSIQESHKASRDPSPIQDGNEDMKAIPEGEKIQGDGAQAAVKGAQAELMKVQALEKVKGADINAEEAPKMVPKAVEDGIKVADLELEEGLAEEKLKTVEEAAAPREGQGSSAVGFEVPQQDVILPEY

c-TAK1 = c-TAK1 (Homo sapiens, UniProt P27448); assay: Kinase selectivity, Table 5: c-TAK1; conditions: read-out: selectivity data (inhibition), c-TAK1
c-TAK1, sequence (P27448 whole entry, species assumed): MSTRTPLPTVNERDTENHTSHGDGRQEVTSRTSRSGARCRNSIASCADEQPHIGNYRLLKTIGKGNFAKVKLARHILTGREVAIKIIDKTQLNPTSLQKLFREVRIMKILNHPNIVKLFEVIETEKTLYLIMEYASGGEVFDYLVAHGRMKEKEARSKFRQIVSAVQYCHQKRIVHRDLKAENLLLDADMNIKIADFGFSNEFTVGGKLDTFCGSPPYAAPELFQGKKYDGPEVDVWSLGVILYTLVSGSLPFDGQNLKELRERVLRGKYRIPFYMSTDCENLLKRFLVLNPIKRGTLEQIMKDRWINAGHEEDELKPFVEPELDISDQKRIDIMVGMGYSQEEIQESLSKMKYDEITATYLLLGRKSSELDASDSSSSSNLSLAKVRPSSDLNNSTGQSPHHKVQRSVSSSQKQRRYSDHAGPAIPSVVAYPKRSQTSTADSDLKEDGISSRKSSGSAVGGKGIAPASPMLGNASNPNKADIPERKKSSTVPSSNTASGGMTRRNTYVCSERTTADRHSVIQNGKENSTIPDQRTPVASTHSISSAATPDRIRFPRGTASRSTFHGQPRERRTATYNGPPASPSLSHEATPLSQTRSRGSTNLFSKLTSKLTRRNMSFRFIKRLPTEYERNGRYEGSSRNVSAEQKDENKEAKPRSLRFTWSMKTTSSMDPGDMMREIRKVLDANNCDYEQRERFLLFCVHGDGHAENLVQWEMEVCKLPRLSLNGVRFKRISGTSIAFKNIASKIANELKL

PIM1 = PIM1 (Homo sapiens, UniProt P11309); assay: Kinase selectivity, Table 5: PIM1; conditions: read-out: selectivity data (inhibition), PIM1
PIM1, sequence (P11309 whole entry): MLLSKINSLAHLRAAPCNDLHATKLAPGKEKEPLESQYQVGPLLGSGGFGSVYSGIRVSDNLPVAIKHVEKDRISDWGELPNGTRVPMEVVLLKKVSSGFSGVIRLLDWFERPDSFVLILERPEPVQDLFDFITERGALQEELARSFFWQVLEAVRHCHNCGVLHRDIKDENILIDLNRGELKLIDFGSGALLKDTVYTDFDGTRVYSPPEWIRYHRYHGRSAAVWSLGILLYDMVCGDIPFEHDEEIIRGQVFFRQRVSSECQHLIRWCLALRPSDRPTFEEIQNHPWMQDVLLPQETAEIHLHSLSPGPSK

PDGFRα = PDGFRα (Homo sapiens, UniProt P16234); assay: Kinase selectivity, Table 5: PDGFRα; conditions: read-out: selectivity data (inhibition), PDGFRα
DYRK1α = DYRK1α (Homo sapiens, UniProt Q13627); assay: Kinase selectivity, Table 5: DYRK1α; conditions: read-out: selectivity data (inhibition), DYRK1α
AKT1 = AKT1 (Homo sapiens, UniProt P31749); assay: Kinase selectivity, Table 5: AKT1; conditions: read-out: selectivity data (inhibition), AKT1
AKT1, sequence (P31749 whole entry, species assumed): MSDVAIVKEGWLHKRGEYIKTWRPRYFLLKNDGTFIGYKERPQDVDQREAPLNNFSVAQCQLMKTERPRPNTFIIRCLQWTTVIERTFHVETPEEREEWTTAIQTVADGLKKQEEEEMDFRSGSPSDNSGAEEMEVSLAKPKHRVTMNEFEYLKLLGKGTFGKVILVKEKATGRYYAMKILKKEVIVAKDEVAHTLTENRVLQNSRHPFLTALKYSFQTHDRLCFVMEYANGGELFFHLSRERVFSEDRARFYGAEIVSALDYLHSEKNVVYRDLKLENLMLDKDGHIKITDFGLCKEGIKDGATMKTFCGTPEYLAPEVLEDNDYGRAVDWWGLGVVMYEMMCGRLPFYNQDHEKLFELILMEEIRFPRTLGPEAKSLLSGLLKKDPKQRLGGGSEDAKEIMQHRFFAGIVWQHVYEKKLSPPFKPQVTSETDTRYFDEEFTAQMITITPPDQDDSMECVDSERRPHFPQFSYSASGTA

KDR = KDR (Homo sapiens, UniProt P35968); assay: Kinase selectivity, Table 5: KDR; conditions: read-out: selectivity data (inhibition), KDR
MAPKAPK2 = MAPKAPK2 (Homo sapiens, UniProt P49137); assay: Kinase selectivity, Table 5: MAPKAPK2; conditions: read-out: selectivity data (inhibition), MAPKAPK2
MAPKAPK2, sequence (P49137 whole entry, species assumed): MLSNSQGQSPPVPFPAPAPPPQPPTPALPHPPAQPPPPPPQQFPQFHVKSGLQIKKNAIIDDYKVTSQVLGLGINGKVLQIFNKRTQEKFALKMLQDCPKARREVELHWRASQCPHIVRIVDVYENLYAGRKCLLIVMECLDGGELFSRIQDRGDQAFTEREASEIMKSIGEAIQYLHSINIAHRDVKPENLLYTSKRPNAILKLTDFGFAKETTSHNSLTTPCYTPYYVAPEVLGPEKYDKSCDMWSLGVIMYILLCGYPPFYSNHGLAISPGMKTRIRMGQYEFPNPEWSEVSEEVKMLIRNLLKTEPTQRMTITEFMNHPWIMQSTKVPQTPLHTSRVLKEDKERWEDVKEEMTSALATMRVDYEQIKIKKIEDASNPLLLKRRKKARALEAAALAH

CK1δ = CK1δ (Homo sapiens, UniProt P48730); assay: Kinase selectivity, Table 5: CK1δ; conditions: read-out: selectivity data (inhibition), CK1δ
PKCβ2 = PKCβ2 (Homo sapiens, UniProt P05771); assay: Kinase selectivity, Table 5: PKCβ2; conditions: read-out: selectivity data (inhibition), PKCβ2
PKCβ2, sequence (P05771 1-673 isoform P05771-2): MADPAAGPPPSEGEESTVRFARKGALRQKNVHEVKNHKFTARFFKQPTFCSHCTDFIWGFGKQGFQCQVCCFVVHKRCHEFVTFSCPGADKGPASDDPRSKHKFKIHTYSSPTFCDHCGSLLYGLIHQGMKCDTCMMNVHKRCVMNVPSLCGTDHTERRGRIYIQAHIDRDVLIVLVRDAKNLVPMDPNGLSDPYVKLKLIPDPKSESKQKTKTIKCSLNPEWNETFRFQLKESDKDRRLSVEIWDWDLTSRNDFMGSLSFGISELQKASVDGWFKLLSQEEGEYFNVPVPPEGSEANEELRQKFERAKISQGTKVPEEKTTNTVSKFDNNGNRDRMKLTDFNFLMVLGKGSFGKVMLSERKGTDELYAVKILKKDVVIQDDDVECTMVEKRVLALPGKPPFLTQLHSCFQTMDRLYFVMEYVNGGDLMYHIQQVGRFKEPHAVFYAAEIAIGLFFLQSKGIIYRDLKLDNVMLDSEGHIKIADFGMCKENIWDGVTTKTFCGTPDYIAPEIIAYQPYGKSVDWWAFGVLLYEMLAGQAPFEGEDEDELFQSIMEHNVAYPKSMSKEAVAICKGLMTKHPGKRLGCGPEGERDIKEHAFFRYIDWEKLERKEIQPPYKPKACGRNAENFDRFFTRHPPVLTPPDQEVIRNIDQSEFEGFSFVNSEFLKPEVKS

PLK1 = PLK1 (Homo sapiens, UniProt P53350); assay: Kinase selectivity, Table 5: PLK1; conditions: read-out: selectivity data (inhibition), PLK1
MSK1 = MSK1 (Homo sapiens, UniProt O75582); assay: Kinase selectivity, Table 5: MSK1; conditions: read-out: selectivity data (inhibition), MSK1
ABL = ABL (Homo sapiens, UniProt P00519); assay: Kinase selectivity, Table 5: ABL; conditions: read-out: selectivity data (inhibition), ABL
MST2 = MST2 (Homo sapiens, UniProt Q13188); assay: Kinase selectivity, Table 5: MST2; conditions: read-out: selectivity data (inhibition), MST2
IRAK4 = IRAK4 (Homo sapiens, UniProt Q9NWZ3); assay: Kinase selectivity, Table 5: IRAK4; conditions: read-out: selectivity data (inhibition), IRAK4
IRAK4, sequence (Q9NWZ3 whole entry, species assumed): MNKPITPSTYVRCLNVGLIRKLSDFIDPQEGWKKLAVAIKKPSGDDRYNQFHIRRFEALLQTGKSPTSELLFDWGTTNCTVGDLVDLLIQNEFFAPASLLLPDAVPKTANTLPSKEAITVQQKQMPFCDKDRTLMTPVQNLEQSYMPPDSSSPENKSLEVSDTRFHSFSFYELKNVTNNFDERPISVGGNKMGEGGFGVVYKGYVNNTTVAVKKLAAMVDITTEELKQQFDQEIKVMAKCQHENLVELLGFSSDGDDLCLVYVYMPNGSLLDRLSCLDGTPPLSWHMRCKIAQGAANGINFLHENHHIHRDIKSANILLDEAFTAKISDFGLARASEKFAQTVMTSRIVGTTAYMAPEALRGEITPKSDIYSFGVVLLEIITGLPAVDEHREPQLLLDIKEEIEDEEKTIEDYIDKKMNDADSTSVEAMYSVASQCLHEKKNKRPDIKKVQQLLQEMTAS

p70S6K = p70S6K (Homo sapiens, UniProt P23443); assay: Kinase selectivity, Table 5: p70S6K; conditions: read-out: selectivity data (inhibition), p70S6K
GSK3β = GSK3β (Homo sapiens, UniProt P49841); assay: Kinase selectivity, Table 5: GSK3β; conditions: read-out: selectivity data (inhibition), GSK3β
GSK3β, sequence (P49841 whole entry, species assumed): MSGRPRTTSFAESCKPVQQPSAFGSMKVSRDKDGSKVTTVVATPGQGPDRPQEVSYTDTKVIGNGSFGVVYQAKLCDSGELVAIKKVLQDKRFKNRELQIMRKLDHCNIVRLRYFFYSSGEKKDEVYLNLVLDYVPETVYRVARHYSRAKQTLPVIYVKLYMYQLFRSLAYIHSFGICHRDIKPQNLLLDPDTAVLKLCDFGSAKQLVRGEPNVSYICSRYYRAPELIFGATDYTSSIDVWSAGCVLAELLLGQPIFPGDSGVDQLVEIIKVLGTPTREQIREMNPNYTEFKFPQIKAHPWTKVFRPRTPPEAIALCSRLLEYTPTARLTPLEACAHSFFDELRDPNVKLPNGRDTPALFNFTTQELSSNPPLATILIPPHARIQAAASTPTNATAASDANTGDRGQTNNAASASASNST

PAK2 = PAK2 (Homo sapiens, UniProt Q13177); assay: Kinase selectivity, Table 5: PAK2; conditions: read-out: selectivity data (inhibition), PAK2
PAK2, sequence (Q13177 whole entry, species assumed): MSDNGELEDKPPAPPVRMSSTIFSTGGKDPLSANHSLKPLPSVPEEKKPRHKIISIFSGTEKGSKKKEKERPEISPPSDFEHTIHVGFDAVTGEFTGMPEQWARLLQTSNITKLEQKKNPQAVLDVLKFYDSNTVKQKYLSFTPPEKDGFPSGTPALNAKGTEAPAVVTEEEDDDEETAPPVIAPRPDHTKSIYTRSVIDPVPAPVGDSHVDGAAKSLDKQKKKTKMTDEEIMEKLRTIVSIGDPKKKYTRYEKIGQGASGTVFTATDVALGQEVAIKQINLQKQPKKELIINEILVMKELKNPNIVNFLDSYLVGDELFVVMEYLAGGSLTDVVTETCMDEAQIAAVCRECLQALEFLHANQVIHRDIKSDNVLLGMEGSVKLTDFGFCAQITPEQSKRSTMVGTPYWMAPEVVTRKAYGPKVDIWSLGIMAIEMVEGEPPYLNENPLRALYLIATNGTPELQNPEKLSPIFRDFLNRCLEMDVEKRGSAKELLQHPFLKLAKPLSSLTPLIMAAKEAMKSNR

## CC(C)c1ccc(C=C2SC(=O)NC2=O)cc1 [5-(4-iso-propylbenzylidene)thiazolidine-2,4-dione]
FLT3(D835Y)
  inhibition at 5 µM: 9%
FGFR1
  inhibition at 5 µM: 1%
BMX
  inhibition at 5 µM: 10%
PIM2
  inhibition at 5 µM: 62%
MARK1
  inhibition at 5 µM: -6%
CAMK4
  inhibition at 5 µM: -8%
c-TAK1
  inhibition at 5 µM: 0%
PIM1
  inhibition at 5 µM: 36%
PDGFRα
  inhibition at 5 µM: 6%
DYRK1α
  inhibition at 5 µM: 68%
AKT1
  inhibition at 5 µM: 6%
KDR
  inhibition at 5 µM: -4%
MAPKAPK2
  inhibition at 5 µM: 5%
CK1δ
  inhibition at 5 µM: 7%
PKCβ2
  inhibition at 5 µM: -1%
PLK1
  inhibition at 5 µM: 9%
MSK1
  inhibition at 5 µM: -1%
ABL
  inhibition at 5 µM: 6%
MST2
  inhibition at 5 µM: 1%
IRAK4
  inhibition at 5 µM: 5%
p70S6K
  inhibition at 5 µM: 8%
GSK3β
  inhibition at 5 µM: 3%
PAK2
  inhibition at 5 µM: -1%
